Source: patent US20130274338A1, “PHARMACEUTICAL COMPOSITIONS COMPRISING DGLA, 15-OHEPA, AND/OR 15-HETRE AND METHODS OF REDUCING SEBUM PRODUCTION USING SAME” (priority 2012, published 2013)
In brackets after ≈: the same amount, converted by molar mass.

Test system: P. acnes
Test: Agar dilution method, growth of P. acnes and MIC, single compounds
Assay type: cell-based, Propionibacterium acnes
Design: key to Growth Index Plate 1 / Growth Index Plate 2 / Growth Index Plate 3 / Growth Index Avg: +++: confluent growth (comparable to control); ++: less confluent growth; +: marked reduction in growth to multiple tiny, single colonies; −: no growth present
Conditions: for MIC: Cutibacterium acnes, read-out: MIC (mg/mL) as per P-11-0007 or P-11-0008 Addendum A
Description: Several compounds including fatty acids such as DGLA, 15-OHEPA, and 15-HETrE were tested to determine their capacity to inhibit the growth of P. acnes. In an exemplary method, an agar dilution method was used to determine the minimum inhibitory concentration (MIC) of each tested compound. Briefly, the agar dilution method involved preparing a series of concentrations of each compound (e.g., nicotinamide, benzoyl peroxide, adapalene, metronidazole, DGLA, 15-OHEPA, and 15-HETrE) in a Reinforced Clostridial Agar (RCA) media that facilitates growth of P. acnes under anaerobic conditions. An inoculum of P. acnes was prepared by incubation of P. acnes for approximately seven days at 35-37° C. to achieve a ≧1.0 OD600 inoculum of P. acnes in RCM broth. A portion of this inoculum was then added to the surface of each plate as a 10 μL spot and incubated at 35-37° C. for 72 hours or more. Growth of P. acnes was then observed and compared to control plates in which no compound has been added, and positive inhibition plates prepared with erythromycin. […] The growth of P. acnes in the presence of nicotinamide, benzoyl peroxide, adapalene, metronidazole, DGLA, 15-OHEPA, and 15-HETrE was determined with varying concentrations of the compound (see, Table 2). Next, the MIC was determined as the concentration at which a marked reduction (+) occurs in the appearance of growth on the test plate (as per Clinical and Laboratory Standards Institute M11-A7).

[1] = compound alone, MIC = concentration with marked reduction (+) of growth

## COc1ccc(-c2ccc3cc(C(=O)O)ccc3c2)cc1C12CC3CC(CC(C3)C1)C2 [Adapalene, 6-[3-(1-adamantyl)-4-methoxyphenyl]-2-naphthoic acid]
[1]
  MIC: > 0.8 mg/mL
  MIC (mg/mL) as per P-11-0007 or P-11-0008 Addendum A: > 0.8 mg/mL
Compound at 0.2 mg/mL
  Growth Index Avg: +++
  Growth Index Plate 1: +++
  Growth Index Plate 2: +++
  Growth Index Plate 3: +++
Compound at 0.4 mg/mL
  Growth Index Avg: +++
  Growth Index Plate 1: +++
  Growth Index Plate 2: +++
  Growth Index Plate 3: +++
Compound at 0.6 mg/mL
  Growth Index Avg: ++
  Growth Index Plate 1: ++
  Growth Index Plate 2: ++
  Growth Index Plate 3: +++
Compound at 0.8 mg/mL
  Growth Index Avg: ++
  Growth Index Plate 1: ++
  Growth Index Plate 2: ++
  Growth Index Plate 3: ++

## O=C(OOC(=O)c1ccccc1)c1ccccc1 [Benzoyl Peroxide]
[1]
  MIC: 0.6 to 0.8 mg/mL (≈ 2.48 to 3.3 mM)
Compound at 0.2 mg/mL
  Growth Index Avg: +++
  Growth Index Plate 1: +++
  Growth Index Plate 2: +++
  Growth Index Plate 3: +++
Compound at 0.4 mg/mL
  Growth Index Avg: +++
  Growth Index Plate 1: +++
  Growth Index Plate 2: +++
  Growth Index Plate 3: +++
Compound at 0.6 mg/mL
  Growth Index Avg: ++
  Growth Index Plate 1: ++
  Growth Index Plate 2: +++
  Growth Index Plate 3: ++
Compound at 0.8 mg/mL
  Growth Index Avg: +
  Growth Index Plate 1: +
  Growth Index Plate 2: +
  Growth Index Plate 3: +
Compound at 1.0 mg/mL
  Growth Index Avg: −
  Growth Index Plate 1: −
  Growth Index Plate 2: −
  Growth Index Plate 3: −

## Cc1ncc([N+](=O)[O-])n1CCO [Metronidazole]
[1]
  MIC: > 1 mg/mL
Compound at 0.2 mg/mL
  Growth Index Avg: +++
  Growth Index Plate 1: +++
  Growth Index Plate 2: +++
  Growth Index Plate 3: +++
Compound at 0.4 mg/mL
  Growth Index Avg: +++
  Growth Index Plate 1: +++
  Growth Index Plate 2: +++
  Growth Index Plate 3: +++
Compound at 0.6 mg/mL
  Growth Index Avg: +++
  Growth Index Plate 1: +++
  Growth Index Plate 2: +++
  Growth Index Plate 3: +++
Compound at 0.8 mg/mL
  Growth Index Avg: +++
  Growth Index Plate 1: +++
  Growth Index Plate 2: +++
  Growth Index Plate 3: +++
Compound at 1.0 mg/mL
  Growth Index Avg: +++
  Growth Index Plate 1: +++
  Growth Index Plate 2: ++
  Growth Index Plate 3: +++

## NC(=O)c1cccnc1 [Nicotinamide]
[1]
  MIC: 10 to 15 mg/mL (≈ 81.9 to 123 mM)
Compound at 1 mg/mL
  Growth Index Avg: +++
  Growth Index Plate 1: +++
  Growth Index Plate 2: +++
  Growth Index Plate 3: +++
Compound at 5 mg/mL
  Growth Index Avg: +++
  Growth Index Plate 1: +++
  Growth Index Plate 2: +++
  Growth Index Plate 3: +++
Compound at 10 mg/mL
  Growth Index Avg: ++
  Growth Index Plate 1: ++
  Growth Index Plate 2: ++
  Growth Index Plate 3: ++
Compound at 15 mg/mL
  Growth Index Avg: +
  Growth Index Plate 1: −
  Growth Index Plate 2: +
  Growth Index Plate 3: +
Compound at 25 mg/mL
  Growth Index Avg: −
  Growth Index Plate 1: −
  Growth Index Plate 2: −
  Growth Index Plate 3: −
